The results in this text go back to patent US7622492B2, “Pyrazolones as inhibitors of 11β-hydroxysteroid dehydrogenase” (Hoffmann-La Roche Inc., priority 2005, dated 2009).

Molecules are shown by their SMILES.

The IC50 is the concentration that inhibits the measured activity by half.

Assay [1] deals with human HSD1 (Homo sapiens, UniProt P28845). Kind of assay: In vitro inhibition of purified human HSD1 (time-resolved fluorescence cortisol detection). As to conditions: purified human HSD1, cortisone substrate, 30 min; read-out: hHSD1 IC50. The class given is biochemical. How it is done:
Purified human HSD1 was diluted in 50 mM Tris-HCl, 100 mM NaCl, 0.1 mg/ml BSA, 0.02% Lubrol, 20 mM MgCl2, 10 mM glucose 6-phosphate, 0.4 mM NADPH, 60 U/ml glucose 6-phosphate dehydrogenase to a concentration of 1.5 μg/ml (Enzyme Solution). […] Testing compounds (40 μM) in DMSO was diluted 3 fold in series in DMSO and further diluted 20 fold in Substrate Solution. Enzyme Solution (10 μl/well) was added into 384 well microtiter plates followed by diluted compound solutions (10 μl/well) and mixed well. Samples were then incubated at […] for 30 min. EDTA/biotin-cortisol solution (10 μl/well) in 28 mM EDTA, […], 50 mM Tris-HCl, 100 mM NaCl was then added followed by 5 ul/well of anti-cortisol antibody (3.2 μg/ml) in 50 mM Tris-HCl, 100 mM NaCl, 0.1 mg/ml BSA and the solution was incubated at 37 degrees for 30 min. […] Signals were quantitated by reading time-resolved fluorescence on a Victor 5 reader (Wallac).

The target of assay [2] is T1, human 11betaHSD1 (Homo sapiens, UniProt P28845).
T1 construct: HEK-293 cells stably transfected with full-length human 11betaHSD1 cDNA; expressed in transfected cells; host or cells: HEK-293
Put plainly: Cell-based assay: HEK-293 cells stably transfected with human 11betaHSD1, cortisol by competitive ELISA. As to conditions: HEK-293 cells stably transfected with full-length human 11betaHSD1 cDNA, cortisone 100 nM, 1 hour. The method, then:
The following day, serially diluted 11bHSD1 inhibitor compounds dissolved in DMSO were added to plating media supplemented with BSA (2 mg/ml final). The final DMSO concentration was 1%. Media was aspirated from plates, and compounds in media were added to each well. The plates were incubated at 37° C. for 1 hour to allow for cellular uptake of compounds. 10 μL of substrate (cortisone) was then added to each well (100 nM final concentration) and incubated for 1 hour at 37° C. Plates were then transferred to ice and 80 μL of media transferred to a 96-well plate and stored at −30° C.
Plates were washed with PBS, 0.1% Tween-20, then washed with PBS alone. Plates were blocked with Blocking Buffer (Tropix Cat# AI075) for 2 hours at room temperature. The plates were then washed as previously described. Assay samples were thawed, diluted 1:4 in DMEM, 2 mg/mL BSA, 1% DMSO, and 24 μL was transferred to wells of a pre-coated 384-well plate, as well as varying amounts of cortisol standard. To each well, 12 μL of cortisol-conjugate and 12 μL of anti-cortisol EIA antibody were added and incubated 2 hrs at room temperature on a orbital plate shaker. The wells were then emptied by inversion, then washed three times with 100 μL of Wash Buffer (Tropix), and then 2 times with 100 μL of Assay Buffer (Tropix). 60 μL of CDP-STAR (Tropix) was added to each well and incubated 10 minutes at room temperature. Chemiluminescence was measured using a Victor V Reader (Perkin Elmer). Cortisol in each sample was interpolated from a standard curve generated with known amounts of cortisol. IC50 values were calculated using the curve fitting software XLFit3 (IDBS).

T1 sequence (P28845 whole entry): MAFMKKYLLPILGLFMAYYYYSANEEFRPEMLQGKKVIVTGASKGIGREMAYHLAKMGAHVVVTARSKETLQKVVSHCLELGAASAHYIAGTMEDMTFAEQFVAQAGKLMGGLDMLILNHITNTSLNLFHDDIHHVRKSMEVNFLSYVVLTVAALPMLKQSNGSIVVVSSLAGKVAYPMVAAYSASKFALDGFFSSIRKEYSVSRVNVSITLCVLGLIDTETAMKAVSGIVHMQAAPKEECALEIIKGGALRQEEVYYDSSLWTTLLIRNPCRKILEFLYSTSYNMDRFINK
human HSD1, sequence (P28845 whole entry): as above

As for `Cn1c2c(c(=O)n1-c1cccc(-c3ccccc3)c1)[C@H]1CC[C@]2(C)C1(C)C` [Example 43, (4S,7R)-2-Biphenyl-3-yl-1,7,8,8-tetramethyl-1,2,4,5,6,7-hexahydro-4,7-methano-indazol-3-one], the IC50 in assay [1] stood at 59 nM; in assay [2], 25 nM.
